Patent US20250026724A1, “(1,4,5-TRISUBSTITUTED 1H-PYRAZOL-3-YL)OXY-2-ALKYLTHIOALKYL ACIDS AND -ALKYL ACID DERIVATIVES, SALTS THEREOF AND USE THEREOF AS ACTIVE HERBICIDAL INGREDIENTS” (BAYER AKTIENGESELLSCHAFT, priority 2021, published 2025)

How the values were obtained:
Assay in all cases: Post-emergence herbicidal action, greenhouse pot trial
Type in all cases: in vivo
[1] = test system: Abutilon theophrasti (ABUTH); settings: visual rating after about 3 weeks; for pest or weed control at 320 g/ha: read-out: Post-emergence effect at 320 g/ha against ABUTH in %
Procedure: (§1) Seeds of monocotyledonous and dicotyledonous weeds and crop plants are placed in sandy loam in plastic or organic planting pots, covered with soil and cultivated in a greenhouse under controlled growth conditions. 2 to 3 weeks after sowing, the trial plants are treated at the one-leaf stage. The compounds of the invention, formulated in the form of wettable powders (WP) or as emulsion concentrates (EC), are then sprayed onto the green parts of the plants as aqueous suspension or emulsion with addition of 0.5% additive at a water application rate equivalent to 600 l/ha. After about 3 weeks of keeping the trial plants in the greenhouse under optimum growth conditions, the effect of the preparations is rated visually in comparison to untreated controls. For example, 100% activity=the plants have died, 0% activity=like control plants.
(§2) Tables B1 to B14 below show the effects of selected compounds of the general formula (I) according to Table 1 on various harmful plants and at an application rate corresponding to 320 g/ha or lower, which were obtained by the trial procedure specified above. The appendices “a”, “b” and “c” give differentiation by dosage used with otherwise the same harmful plants tested.
(§3) As shown by results from Tables B1 to B19, inventive compounds of the general formula (I) in the case of post-emergence treatment have good herbicidal efficacy against harmful plants, for example Abutilon theophrasti (ABUTH), Alopecurus myosuroides (ALOMY), Amaranthus retroflexus (AMARE), Avena fatua (AVEFA), Digitaria sanguinalis (DIGSA), Echinochloa crus-galli (ECHCG), Bassia scoparia (KCHSC), Lolium rigidum (LOLRI), Matricaria inodora (MATIN), Pharbitis purpurea (PHBPU), Polygonum convolvulus (POLCO), Setaria viridis (SETVI), Veronica persica (VERPE) and Viola tricolor (VIOTR) at an application rate of 320 g of active substance or less per hectare, and good crop plant compatibility in the case of organisms such as Oryza sativa (ORYSA), Zea mays (ZEAMX), Brassica napus (BRSNW), Glycine max (GLXMA) and Triticum aestivum (TRZAS) at an application rate of 320 g or less per hectare.

[2] = test system: Amaranthus retroflexus (AMARE); settings: visual rating after about 3 weeks; for pest or weed control at 320 g/ha / pest or weed control at 80 g/ha: Amaranthus retroflexus, 504 h; for pest or weed control at 320 g/ha: read-out: Post-emergence effect at 320 g/ha against AMARE in %; for pest or weed control at 80 g/ha: read-out: Post-emergence effect at 80 g/ha against AMARE in %
Procedure: as §1, §2, §3

Bassia scoparia (KCHSC) = settings: Bassia scoparia, 504 h, read-out: Post-emergence effect against KCHSC
Procedure: as §1, §2, §3

[3] = test system: Digitaria sanguinalis (DIGSA); settings: 320 g/ha, visual rating after about 3 weeks; for pest or weed control at 320 g/ha: Digitaria sanguinalis, 504 h, read-out: Post-emergence effect at 320 g/ha against DIGSA in %
Procedure: as §1, §2, §3

[4] = test system: Echinochloa crus-galli (ECHCG); settings: 320 g/ha, visual rating after about 3 weeks; for pest or weed control at 320 g/ha: Echinochloa crus-galli, 504 h, read-out: Post-emergence effect at 320 g/ha against ECHCG in %
Procedure: as §1, §2, §3

[5] = test system: Matricaria inodora (MATIN); settings: visual rating after about 3 weeks; for pest or weed control at 80 g/ha / pest or weed control at 320 g/ha: Tripleurospermum inodorum, 504 h; for pest or weed control at 80 g/ha: read-out: Post-emergence effect at 80 g/ha against MATIN in %; for pest or weed control at 320 g/ha: read-out: Post-emergence effect at 320 g/ha against MATIN in %
Procedure: as §1, §2, §3

[6] = test system: Pharbitis purpurea (PHBPU); settings: visual rating after about 3 weeks; for pest or weed control at 320 g/ha: read-out: Post-emergence effect at 320 g/ha against PHBPU in %
Procedure: as §1, §2, §3

[7] = test system: Polygonum convolvulus (POLCO); settings: visual rating after about 3 weeks; for pest or weed control at 320 g/ha: read-out: Post-emergence effect at 320 g/ha against POLCO in %
Procedure: as §1, §2, §3

Setaria viridis (SETVI) = settings: 320 g/ha, visual rating after about 3 weeks; for pest or weed control at 320 g/ha: Setaria viridis, 504 h, read-out: Post-emergence effect at 320 g/ha against SETVI in %
Procedure: as §1, §2, §3

Viola tricolor (VIOTR) = test system: Viola tricolor (VIOTR)
Procedure: as §1, §2, §3

[8] = Viola tricolor, 504 h, 80 g/ha, read-out: Post-emergence effect against VIOTR
[9] = Viola tricolor, 504 h, 320 g/ha, read-out: Post-emergence effect against VIOTR
[10] = Abutilon theophrasti, 504 h, 320 g/ha
[11] = Ipomoea purpurea, 504 h, 320 g/ha
[12] = Fallopia convolvulus, 504 h, 320 g/ha

Row | SMILES | pest or weed control at 320 g/ha [4] [%] | pest or weed control at 320 g/ha ([5]; 320 g/ha) [%] | pest or weed control at 320 g/ha (Setaria viridis (SETVI)) [%] | pest or weed control at 80 g/ha (Viola tricolor (VIOTR); [8]) [%] | pest or weed control at 320 g/ha (Viola tricolor (VIOTR); [9]) [%] | pest or weed control at 320 g/ha [3] [%] | pest or weed control at 320 g/ha [1, 10] [%] | pest or weed control at 320 g/ha [6, 11] [%] | pest or weed control at 320 g/ha [7, 12] [%] | pest or weed control at 320 g/ha ([2]; 320 g/ha) [%] | further results
1 | CCOC(=O)C(Oc1nn(-c2ncccc2F)c(-c2ccc(F)nc2)c1Br)SC (single isomer, unassigned) [Example I-29] |  |  |  |  |  |  |  |  |  |  | Post-emergence effect at 320 g/ha against ABUTH in % ([1]; 320 g/ha): 90%; Post-emergence effect at 320 g/ha against AMARE in % ([2]; 320 g/ha): 80%; pest or weed control at 80 g/ha (Bassia scoparia (KCHSC); 80 g/ha): 80%; pest or weed control at 320 g/ha (Bassia scoparia (KCHSC); 320 g/ha): 90%; Post-emergence effect at 320 g/ha against DIGSA in % [3]: 90%; Post-emergence effect at 320 g/ha against ECHCG in % [4]: 90%; Post-emergence effect at 320 g/ha against MATIN in % ([5]; 320 g/ha): 80%; Post-emergence effect at 320 g/ha against PHBPU in % ([6]; 320 g/ha): 90%; Post-emergence effect at 80 g/ha against POLCO in % ([7]; 80 g/ha): 90%; Post-emergence effect at 320 g/ha against POLCO in % ([7]; 320 g/ha): 90%; Post-emergence effect at 320 g/ha against SETVI in % (Setaria viridis (SETVI)): 90%; Post-emergence effect against VIOTR (Viola tricolor (VIOTR); 80 g/ha): 80%; Post-emergence effect against VIOTR (Viola tricolor (VIOTR); 320 g/ha): 90%
2 | CCOC(=O)C(Oc1nn(-c2cc(F)ccc2F)c(-c2cncc(F)c2)c1I)SC (stereo not drawn) [Example I-02] | 90 | 90 | 80 | 80 | 90 |  |  |  |  |  | pest or weed control at 80 g/ha [5]: 80%
3 | COC(=O)C(Oc1nn(-c2cc(F)ccc2F)c(-c2cncc(F)c2)c1Br)SC (stereo not drawn) [Example I-07] | 90 | 90 | 90 | 90 | 90 | 90 |  |  |  |  | pest or weed control at 80 g/ha [5]: 80%; pest or weed control at 20 g/ha (Viola tricolor (VIOTR); Viola tricolor, 504 h, 20 g/ha, read-out: Post-emergence effect against VIOTR): 80%
4 | CCOC(=O)C(Oc1nn(-c2ncccc2F)c(-c2ccc(F)nc2)c1C(F)(F)F)SC (stereo not drawn) [Example I-09] | 80 | 80 |  |  | 90 |  | 80 | 90 | 90 |  | 
5 | CCOC(=O)C(Oc1nn(-c2ncccc2F)c(-c2ccc(F)cc2F)c1Br)SC (stereo not drawn) [Example I-14] |  |  | 80 |  |  | 80 | 80 | 80 | 90 | 80 | 
6 | CCOC(=O)C(Oc1nn(-c2ncccc2F)c(-c2ccc(F)nc2)c1I)SC (stereo not drawn) [Example I-18] | 100 |  | 90 | 90 | 90 | 80 | 90 | 90 | 90 | 90 | pest or weed control at 80 g/ha [2]: 80%; pest or weed control at 80 g/ha ([6]; Ipomoea purpurea, 504 h, 80 g/ha, read-out: Post-emergence effect at 80 g/ha against PHBPU in %): 80%; pest or weed control at 80 g/ha ([7]; Fallopia convolvulus, 504 h, 80 g/ha, read-out: Post-emergence effect at 80 g/ha against POLCO in %): 90%
7 | CCOC(=O)C(Oc1nn(-c2ncccc2F)c(-c2ccc(F)nc2)c1C1CC1)SC (stereo not drawn) [Example I-20] | 90 |  |  | 80 | 90 |  | 90 |  |  | 80 | pest or weed control at 80 g/ha ([1]; Abutilon theophrasti, 504 h, 80 g/ha, read-out: Post-emergence effect at 80 g/ha against ABUTH in %): 80%; pest or weed control at 80 g/ha [2]: 80%
8 | CSC(Oc1nn(-c2ccccc2F)c(-c2ccc(F)nc2)c1I)C(=O)O (stereo not drawn) [Example I-21] | 90 |  | 90 | 80 | 90 |  | 80 |  | 80 | 90 | 
9 | CSC(Oc1nn(-c2ncccc2F)c(-c2ccc(F)nc2)c1C(F)(F)F)C(=O)O (stereo not drawn) [Example I-38] |  | 80 |  |  | 90 |  | 80 |  | 90 |  | 
10 | CCOC(=O)C(Oc1nn(-c2ccccc2F)c(-c2ccc(F)nc2)c1I)SC (stereo not drawn) [Example I-68] | 90 |  | 90 |  | 90 | 80 |  |  | 80 | 90 | 
